Drawing on patent publication US20260374754A1, “N-((ISOQUINOLIN-6-YL)METHYL)-1H-PYRAZOLE-4-CARBOXAMIDE DERIVATIVES AS PLASMA KALLIKREIN INHIBITORS FOR THE TREATMENT OF HEREDITARY ANGIODEMA” (Takeda Pharmaceutical Company Limited, priority 2022, published 2026), this text covers EC50 for 32 compounds.

Each structure is given as a SMILES string. A value given as a limit tells only on which side of the number the result lay.

The target in the test is human activated kallikrein enzyme (Homo sapiens, UniProt P03952). Description: Inhibition of human activated plasma kallikrein, fluorogenic PFR-AMC substrate, 500 pM enzyme format. The format is biochemical. The conditions noted are these: 500 pM activated kallikrein; 300 μM PFR-AMC; 30 min preincubation; 10 min room temperature; pH 7.5; read-out: Primary Dose Response Assay: Average EC50. The method, boiled down: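 Using fluorogenic PFR-AMC at 300 μM, cleavage by 500 pM human activated kallikrein ran 10 min at room temperature, read at 460 nm emission (380 nm excitation). Enzyme and compounds were first preincubated 30 min in 20 mM Tris pH 7.5, 150 mM NaCl, 1 mM EDTA, 0.1% PEG-400, 0.1% Triton X-100.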
Sequence of human activated kallikrein enzyme (P03952 391-638 limits assumed): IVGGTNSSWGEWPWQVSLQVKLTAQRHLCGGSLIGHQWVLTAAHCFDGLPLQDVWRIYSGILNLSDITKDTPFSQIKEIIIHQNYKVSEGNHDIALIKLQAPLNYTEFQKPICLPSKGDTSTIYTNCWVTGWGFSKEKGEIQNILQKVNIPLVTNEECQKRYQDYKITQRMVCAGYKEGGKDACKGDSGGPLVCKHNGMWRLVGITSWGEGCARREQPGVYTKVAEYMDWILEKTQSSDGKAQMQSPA
Sequence of human activated kallikrein enzyme (P03952 20-390 partner limits assumed): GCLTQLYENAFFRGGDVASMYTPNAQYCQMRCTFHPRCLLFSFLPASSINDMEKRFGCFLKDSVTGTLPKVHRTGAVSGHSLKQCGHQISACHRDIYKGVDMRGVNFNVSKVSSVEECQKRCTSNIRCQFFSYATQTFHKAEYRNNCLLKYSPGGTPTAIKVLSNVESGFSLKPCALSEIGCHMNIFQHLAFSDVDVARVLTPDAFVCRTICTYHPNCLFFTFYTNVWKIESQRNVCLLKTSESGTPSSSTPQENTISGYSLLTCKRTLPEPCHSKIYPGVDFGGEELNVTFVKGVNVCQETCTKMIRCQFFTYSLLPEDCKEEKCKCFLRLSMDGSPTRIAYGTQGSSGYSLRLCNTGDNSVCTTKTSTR

As usually defined, the EC50 is the concentration giving half of the maximal effect. As to `Cc1cc2c(N)nccc2c(C)c1CNC(=O)c1cnn(Cc2sc3ccccc3c2Cl)c1` [Example 80, N-((1-amino-5,7-dimethylisoquinolin-6-yl)methyl)-1-((3-chlorobenzo[b]thiophen-2-yl)methyl)-1H-pyrazole-4-carboxamide], the EC50 fell in the range of 100 to 1000 nM.

As for `Cc1cc2c(N)nccc2c(C)c1CNC(=O)c1cnn(Cc2cc3ccc(Cl)cc3s2)c1` [Example 81, N-((1-amino-5,7-dimethylisoquinolin-6-yl)methyl)-1-((6-chlorobenzo[b]thiophen-2-yl)methyl)-1H-pyrazole-4-carboxamide], the EC50 was in the range of 1 to 10 nM.

For the compound `Cc1cc2c(N)nccc2c(C)c1CNC(=O)c1cnn(Cc2cc3ccccc3o2)c1` [Example 82, N-((1-amino-5,7-dimethylisoquinolin-6-yl)methyl)-1-(benzofuran-2-ylmethyl)-1H-pyrazole-4-carboxamide], the EC50 lay in the range of 10 to 100 nM.

In the case of `Cc1cc2c(N)nccc2c(C)c1CNC(=O)c1cnn(Cc2ncccn2)c1` [Example 83, N-((1-amino-5,7-dimethylisoquinolin-6-yl)methyl)-1-(pyrimidin-2-ylmethyl)-1H-pyrazole-4-carboxamide], the EC50 fell in the range of 100 to 1000 nM.

With `Cc1cc2c(N)nccc2c(C)c1CNC(=O)c1cnn(Cc2cc3ccccc3s2)c1` [Example 84, N-((1-amino-5,7-dimethylisoquinolin-6-yl)methyl)-1-(benzo[b]thiophen-2-ylmethyl)-1H-pyrazole-4-carboxamide], the EC50 is 1 to 10 nM.

As to `Cc1cc2c(N)nccc2c(C)c1CNC(=O)c1cnn(Cc2nc3ccccc3o2)c1` [Example 85, N-((1-amino-5,7-dimethylisoquinolin-6-yl)methyl)-1-(benzo[d]oxazol-2-ylmethyl)-1H-pyrazole-4-carboxamide], the EC50 fell in the range of 10 to 100 nM.

Take `Cc1cc2c(N)nccc2c(C)c1CNC(=O)c1cnn(Cc2cnccn2)c1` [Example 86, N-((1-amino-5,7-dimethylisoquinolin-6-yl)methyl)-1-(pyrazin-2-ylmethyl)-1H-pyrazole-4-carboxamide]: the EC50 was in the range of 100 to 1000 nM.

Regarding `Cc1cc2c(N)nccc2c(C)c1CNC(=O)c1cnn(Cc2ccncc2)c1` [Example 87, N-((1-amino-5,7-dimethylisoquinolin-6-yl)methyl)-1-(pyridin-4-ylmethyl)-1H-pyrazole-4-carboxamide], the EC50 was 100 to 1000 nM.

In the case of `Cc1cc2c(N)nccc2c(C)c1CNC(=O)c1cnn(Cc2cccnc2)c1` [Example 88, N-((1-amino-5,7-dimethylisoquinolin-6-yl)methyl)-1-(pyridin-3-ylmethyl)-1H-pyrazole-4-carboxamide], the EC50 fell in the range of 10 to 100 nM.

`Cc1cc2c(N)nccc2c(C)c1CNC(=O)c1cnn(Cc2ccc(CC(=O)N3CC4CC4C3)nc2)c1` (centres unmarked) [Example 90, 1-((6-(2-(3-azabicyclo[3.1.0]hexan-3-yl)-2-oxoethyl)pyridin-3-yl)methyl)-N-((1-amino-5,7-dimethylisoquinolin-6-yl)methyl)-1H-pyrazole-4-carboxamide]: the EC50 is under 1 nM.

For `COc1ccc(Cn2cc(C(=O)NCc3c(C)cc4c(N)nccc4c3C)cn2)cc1` [Example 91, N-((1-amino-5,7-dimethylisoquinolin-6-yl)methyl)-1-(4-methoxybenzyl)-1H-pyrazole-4-carboxamide], the EC50 is 10 to 100 nM.

Take `Cc1cc2c(N)nccc2c(C)c1CNC(=O)c1cnn(Cc2ccc(C#N)cc2)c1` [Example 92, N-((1-amino-5,7-dimethylisoquinolin-6-yl)methyl)-1-(4-cyanobenzyl)-1H-pyrazole-4-carboxamide]: the concentration giving a half-maximal response (EC50) lay in the range of 10 to 100 nM.

Consider `Cc1cc2c(N)nccc2c(C)c1CNC(=O)c1cnn(Cc2ccc(C(F)(F)F)cc2)c1` [Example 93, N-((1-amino-5,7-dimethylisoquinolin-6-yl)methyl)-1-(4-(trifluoromethyl)benzyl)-1H-pyrazole-4-carboxamide], for which the EC50 lay within 10 to 100 nM.

With `Cc1cc2c(N)nccc2c(C)c1CNC(=O)c1cnn(Cc2cccc(C#N)c2)c1` [Example 94, N-((1-amino-5,7-dimethylisoquinolin-6-yl)methyl)-1-(3-cyanobenzyl)-1H-pyrazole-4-carboxamide], the EC50 lay within 10 to 100 nM.

Turning to `Cc1cc2c(N)nccc2c(C)c1CNC(=O)c1cnn(Cc2cc(C(F)(F)F)cc(C(F)(F)F)c2)c1` [Example 95, N-((1-amino-5,7-dimethylisoquinolin-6-yl)methyl)-1-(3,5-bis(trifluoromethyl)benzyl)-1H-pyrazole-4-carboxamide], the EC50 lay in the range of 10 to 100 nM.

Regarding `Cc1ccc(Cn2cc(C(=O)NCc3c(C)cc4c(N)nccc4c3C)cn2)cc1Cl` [Example 96, N-((1-amino-5,7-dimethylisoquinolin-6-yl)methyl)-1-(3-chloro-4-methylbenzyl)-1H-pyrazole-4-carboxamide], the EC50 fell in the range of 1 to 10 nM.

In the case of `Cc1cc2c(N)nccc2c(C)c1CNC(=O)c1cnn(Cc2cccc(C(F)(F)F)c2)c1` [Example 97, N-((1-amino-5,7-dimethylisoquinolin-6-yl)methyl)-1-(3-(trifluoromethyl)benzyl)-1H-pyrazole-4-carboxamide], the EC50 is 10 to 100 nM.

For `Cc1cc2c(N)nccc2c(C)c1CNC(=O)c1cnn(Cc2cccc(Cl)c2)c1` [Example 98, N-((1-amino-5,7-dimethylisoquinolin-6-yl)methyl)-1-(3-chlorobenzyl)-1H-pyrazole-4-carboxamide], the EC50 lay within 10 to 100 nM.

On to `Cc1cc2c(N)nccc2c(C)c1CNC(=O)c1cnn(Cc2cn3cc(C4CC4)ccc3n2)c1` [Example 99, N-((1-amino-5,7-dimethylisoquinolin-6-yl)methyl)-1-((6-cyclopropylimidazo[1,2-a]pyridin-2-yl)methyl)-1H-pyrazole-4-carboxamide], for which the EC50 is under 1 nM.

Take `Cc1cc2c(N)nccc2c(C)c1CNC(=O)c1cnn(Cc2cn3ccc(C4CC4)cc3n2)c1` [Example 100, N-((1-amino-5,7-dimethylisoquinolin-6-yl)methyl)-1-((7-cyclopropylimidazo[1,2-a]pyridin-2-yl)methyl)-1H-pyrazole-4-carboxamide]: the EC50 is under 1 nM.

`Cc1cc2nc(Cn3cc(C(=O)NCc4c(C)cc5c(N)nccc5c4C)cn3)cn2cc1C` [Example 102, N-((1-amino-5,7-dimethylisoquinolin-6-yl)methyl)-1-((6,7-dimethylimidazo[1,2-a]pyridin-2-yl)methyl)-1H-pyrazole-4-carboxamide]: the EC50 is under 1 nM.

As for `Cc1ccn2cc(Cn3cc(C(=O)NCc4c(C)cc5c(N)nccc5c4C)cn3)nc2c1` [Example 103, N-((1-amino-5,7-dimethylisoquinolin-6-yl)methyl)-1-((7-methylimidazo[1,2-a]pyridin-2-yl)methyl)-1H-pyrazole-4-carboxamide], the EC50 was under 1 nM.

Consider `Cc1cc2c(N)nccc2c(C)c1CNC(=O)c1cnn(Cc2cn3c(C)c(C4CC4)ccc3n2)c1` [Example 104, N-((1-amino-5,7-dimethylisoquinolin-6-yl)methyl)-1-((6-cyclopropyl-5-methylimidazo[1,2-a]pyridin-2-yl)methyl)-1H-pyrazole-4-carboxamide], for which the EC50 was under 1 nM.

As for `Cc1cc2c(N)nccc2c(C)c1CNC(=O)c1cnn(Cc2cn3c(C)cccc3n2)c1` [Example 105, N-((1-amino-5,7-dimethylisoquinolin-6-yl)methyl)-1-((5-methylimidazo[1,2-a]pyridin-2-yl)methyl)-1H-pyrazole-4-carboxamide], the EC50 was under 1 nM.

Take `Cc1cc2c(N)nccc2c(C)c1CNC(=O)c1cnn(Cc2cn3c(C)c(Cl)ccc3n2)c1` [Example 106, N-((1-amino-5,7-dimethylisoquinolin-6-yl)methyl)-1-((6-chloro-5-methylimidazo[1,2-a]pyridin-2-yl)methyl)-1H-pyrazole-4-carboxamide]: the EC50 was under 1 nM.

For the compound `Cc1cc2c(N)nccc2c(C)c1CNC(=O)c1cnn(Cc2ccc3ccc(Cl)cc3n2)c1` [Example 107, N-((1-amino-5,7-dimethylisoquinolin-6-yl)methyl)-1-((7-chloroquinolin-2-yl)methyl)-1H-pyrazole-4-carboxamide], the EC50 fell in the range of 1 to 10 nM.

In the case of `COc1ccc2cc(Cn3cc(C(=O)NCc4c(C)cc5c(N)nccc5c4C)cn3)c(Cl)nc2c1` [Example 108, N-((1-amino-5,7-dimethylisoquinolin-6-yl)methyl)-1-((2-chloro-7-methoxyquinolin-3-yl)methyl)-1H-pyrazole-4-carboxamide], the concentration giving a half-maximal response (EC50) is under 1 nM.

On to `COc1ccc2nc(Cl)c(Cn3cc(C(=O)NCc4c(C)cc5c(N)nccc5c4C)cn3)cc2c1` [Example 109, N-((1-amino-5,7-dimethylisoquinolin-6-yl)methyl)-1-((2-chloro-6-methoxyquinolin-3-yl)methyl)-1H-pyrazole-4-carboxamide], for which the half-maximal effective concentration (EC50) was in the range of 1 to 10 nM.

Consider `COc1ccc2cc(Cn3cc(C(=O)NCc4c(C)cc5c(N)nccc5c4C)cn3)cnc2c1` [Example 110, N-((1-amino-5,7-dimethylisoquinolin-6-yl)methyl)-1-((7-methoxyquinolin-3-yl)methyl)-1H-pyrazole-4-carboxamide], for which the EC50 was in the range of 1 to 10 nM.

Regarding `COc1ccc2cc(Cn3cc(C(=O)NCc4c(C)cc5c(N)nccc5c4C)cn3)cnc2c1` [Example 111, N-((1-amino-5,7-dimethylisoquinolin-6-yl)methyl)-1-((7-methoxyquinolin-3-yl)methyl)-1H-pyrazole-4-carboxamide], the EC50 was under 1 nM.

For the compound `Cc1cc2c(N)nccc2c(C)c1CNC(=O)c1cnn(Cc2ccc3c(-n4cccn4)cccc3c2)c1` [Example 112, 1-((5-(1H-pyrazol-1-yl)naphthalen-2-yl)methyl)-N-((1-amino-5,7-dimethylisoquinolin-6-yl)methyl)-1H-pyrazole-4-carboxamide], the EC50 was under 1 nM.

In the case of `Cc1cc2c(N)nccc2c(C)c1CNC(=O)c1cnn(Cc2ccc3c(Br)cccc3c2)c1` [Example 113, N-((1-amino-5,7-dimethylisoquinolin-6-yl)methyl)-1-((5-bromonaphthalen-2-yl)methyl)-1H-pyrazole-4-carboxamide], the EC50 lay in the range of 1 to 10 nM.
